Measurements published in the supplement of paper PMC10307832.

Columns and labels:
Assay in all cases: relative viability (nuclei count vs DMSO), 5 days (fraction); higher = more cells survive
Dabrafenib + Pemetrexed = compound: CC(C)(C)c1nc(-c2cccc(NS(=O)(=O)c3c(F)cccc3F)c2F)c(-c2ccnc(N)n2)s1 [Dabrafenib] + Nc1nc2[nH]cc(CCc3ccc(C(=O)N[C@@H](CCC(=O)O)C(=O)O)cc3)c2c(=O)[nH]1 [Pemetrexed] (partner 0.2 µM)
Procedure, shortened: (§1)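 Lung cancer cell lines were seeded in 1536-well plates and dosed by pin tool the next day, with either a single drug or a fixed anchor-drug dose combined with five library-drug doses (not always all listed) spaced in √10 steps. Five days later, one step fixed the cells and stained their nuclei (final 0.05% Triton X-100, 1% formaldehyde, 1 ug/ml Hoechst), and nuclei were counted on 4× images. Relative viability is the nuclei count in treated wells divided by the count in vehicle wells, and each value is the median of duplicate plates.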

VX-702 + Trametinib = compound: NC(=O)c1ccc(N(C(N)=O)c2c(F)cccc2F)nc1-c1ccc(F)cc1F [VX-702] + CC(=O)Nc1cccc(-n2c(=O)n(C3CC3)c(=O)c3c(Nc4ccc(I)cc4F)n(C)c(=O)c(C)c32)c1 [Trametinib] (partner 0.02 µM)
Procedure, shortened: as §1

VX-702 + Pemetrexed = compound: NC(=O)c1ccc(N(C(N)=O)c2c(F)cccc2F)nc1-c1ccc(F)cc1F [VX-702] + Nc1nc2[nH]cc(CCc3ccc(C(=O)N[C@@H](CCC(=O)O)C(=O)O)cc3)c2c(=O)[nH]1 [Pemetrexed] (partner 0.2 µM)
Procedure, shortened: as §1

VX-702 + Foretinib = compound: NC(=O)c1ccc(N(C(N)=O)c2c(F)cccc2F)nc1-c1ccc(F)cc1F [VX-702] + COc1cc2c(Oc3ccc(NC(=O)C4(C(=O)Nc5ccc(F)cc5)CC4)cc3F)ccnc2cc1OCCCN1CCOCC1 [Foretinib] (partner 0.25 µM)
Procedure, shortened: as §1

HCC-44
relative viability (Dabrafenib + Pemetrexed; first compound 0.003 µM): 0.61
relative viability (Dabrafenib + Pemetrexed; first compound 0.009487 µM): 0.58
relative viability (Dabrafenib + Pemetrexed; first compound 0.03 µM): 0.697
relative viability (Dabrafenib + Pemetrexed; first compound 0.09487 µM): 0.598
relative viability (Dabrafenib + Pemetrexed; first compound 0.3 µM): 0.651
relative viability (VX-702 + Trametinib; first compound 0.02 µM): 1.11
relative viability (VX-702 + Trametinib; first compound 0.2 µM): 1.06
relative viability (VX-702 + Trametinib; first compound 0.6325 µM): 1.05
relative viability (VX-702 + Trametinib; first compound 2 µM): 1.1
relative viability (VX-702 + Pemetrexed; first compound 0.02 µM): 0.615
relative viability (VX-702 + Pemetrexed; first compound 0.2 µM): 0.652
relative viability (VX-702 + Pemetrexed; first compound 0.6325 µM): 0.653
relative viability (VX-702 + Pemetrexed; first compound 2 µM): 0.678

HCC-78
relative viability (Dabrafenib + Pemetrexed; first compound 0.009487 µM): 0.935
relative viability (Dabrafenib + Pemetrexed; first compound 0.03 µM): 0.91
relative viability (Dabrafenib + Pemetrexed; first compound 0.09487 µM): 0.879
relative viability (Dabrafenib + Pemetrexed; first compound 0.3 µM): 0.795
relative viability (VX-702 + Trametinib; first compound 0.02 µM): 0.53
relative viability (VX-702 + Trametinib; first compound 0.2 µM): 0.861
relative viability (VX-702 + Trametinib; first compound 0.6325 µM): 0.741
relative viability (VX-702 + Trametinib; first compound 2 µM): 0.801
relative viability (VX-702 + Foretinib; first compound 0.02 µM): 0.523
relative viability (VX-702 + Foretinib; first compound 0.2 µM): 0.527
relative viability (VX-702 + Foretinib; first compound 0.6325 µM): 0.59
relative viability (VX-702 + Foretinib; first compound 2 µM): 0.479
relative viability (VX-702 + Pemetrexed; first compound 0.02 µM): 0.874
relative viability (VX-702 + Pemetrexed; first compound 0.2 µM): 0.883
relative viability (VX-702 + Pemetrexed; first compound 0.6325 µM): 0.901
relative viability (VX-702 + Pemetrexed; first compound 2 µM): 0.889

HCC-366
relative viability (Dabrafenib + Pemetrexed; first compound 0.003 µM): 0.216
relative viability (Dabrafenib + Pemetrexed; first compound 0.009487 µM): 0.0959
relative viability (Dabrafenib + Pemetrexed; first compound 0.03 µM): 0.172
relative viability (Dabrafenib + Pemetrexed; first compound 0.09487 µM): 0.124
relative viability (Dabrafenib + Pemetrexed; first compound 0.3 µM): 0.193
relative viability (VX-702 + Trametinib; first compound 0.02 µM): 0.341
relative viability (VX-702 + Trametinib; first compound 0.2 µM): 0.314
relative viability (VX-702 + Trametinib; first compound 0.6325 µM): 0.269
relative viability (VX-702 + Trametinib; first compound 2 µM): 0.266
relative viability (VX-702 + Foretinib; first compound 0.02 µM): 0.896
relative viability (VX-702 + Foretinib; first compound 0.2 µM): 0.873
relative viability (VX-702 + Foretinib; first compound 0.6325 µM): 0.955
relative viability (VX-702 + Foretinib; first compound 2 µM): 0.922
relative viability (VX-702 + Pemetrexed; first compound 0.02 µM): 0.171
relative viability (VX-702 + Pemetrexed; first compound 0.2 µM): 0.149
relative viability (VX-702 + Pemetrexed; first compound 0.6325 µM): 0.203
relative viability (VX-702 + Pemetrexed; first compound 2 µM): 0.165

HCC-827
relative viability (Dabrafenib + Pemetrexed; first compound 0.003 µM): 0.224
relative viability (Dabrafenib + Pemetrexed; first compound 0.009487 µM): 0.288
relative viability (Dabrafenib + Pemetrexed; first compound 0.03 µM): 0.243
relative viability (Dabrafenib + Pemetrexed; first compound 0.3 µM): 0.281
relative viability (VX-702 + Trametinib; first compound 0.02 µM): 0.55
relative viability (VX-702 + Trametinib; first compound 0.2 µM): 0.501
relative viability (VX-702 + Trametinib; first compound 0.6325 µM): 0.515
relative viability (VX-702 + Trametinib; first compound 2 µM): 0.425
relative viability (VX-702 + Foretinib; first compound 0.02 µM): 1.07
relative viability (VX-702 + Foretinib; first compound 0.2 µM): 0.988
relative viability (VX-702 + Foretinib; first compound 0.6325 µM): 1.07
relative viability (VX-702 + Foretinib; first compound 2 µM): 0.787
relative viability (VX-702 + Pemetrexed; first compound 0.02 µM): 0.244
relative viability (VX-702 + Pemetrexed; first compound 0.2 µM): 0.252
relative viability (VX-702 + Pemetrexed; first compound 0.6325 µM): 0.287
relative viability (VX-702 + Pemetrexed; first compound 2 µM): 0.18

HOP-62
relative viability (Dabrafenib + Pemetrexed; first compound 0.003 µM): 0.253
relative viability (Dabrafenib + Pemetrexed; first compound 0.009487 µM): 0.255
relative viability (Dabrafenib + Pemetrexed; first compound 0.03 µM): 0.286
relative viability (Dabrafenib + Pemetrexed; first compound 0.09487 µM): 0.273
relative viability (Dabrafenib + Pemetrexed; first compound 0.3 µM): 0.25
relative viability (VX-702 + Trametinib; first compound 0.02 µM): 0.419
relative viability (VX-702 + Trametinib; first compound 0.2 µM): 0.397
relative viability (VX-702 + Trametinib; first compound 0.6325 µM): 0.469
relative viability (VX-702 + Trametinib; first compound 2 µM): 0.45
relative viability (VX-702 + Foretinib; first compound 0.02 µM): 1.18
relative viability (VX-702 + Foretinib; first compound 0.2 µM): 1.19
relative viability (VX-702 + Foretinib; first compound 0.6325 µM): 1.25
relative viability (VX-702 + Foretinib; first compound 2 µM): 1.33
relative viability (VX-702 + Pemetrexed; first compound 0.02 µM): 0.365
relative viability (VX-702 + Pemetrexed; first compound 0.2 µM): 0.311
relative viability (VX-702 + Pemetrexed; first compound 0.6325 µM): 0.284
relative viability (VX-702 + Pemetrexed; first compound 2 µM): 0.309

IA-LM
relative viability (VX-702 + Foretinib; first compound 0.02 µM): 1.21
relative viability (VX-702 + Foretinib; first compound 0.2 µM): 1.1
relative viability (VX-702 + Foretinib; first compound 0.6325 µM): 1.2
relative viability (VX-702 + Foretinib; first compound 2 µM): 1.15
